Measured values published in PubChem BioAssay AID330 (DTP/NCI, 2004).
Several values for one entry are separate records, joined by “and”; a condition that tells them apart may be missing. Equal entries are not always repeated. Inconclusive results and toxic doses are left out.

Tested on: P388 leukemia ip, CD2F1 mice, survival T/C
Assay: NCI In Vivo Anticancer Drug Screen. Data for tumor model P388 Leukemia (intraperitoneal) in CD2F1 (CDF1) mice
Conditions: endpoint: median survival time, higher = longer survival
Procedure, shortened: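 Mice carrying the transplanted tumor received test compound or vehicle. Survival was recorded in each group, and the value is the treated-group measurement divided by that of the vehicle-treated control group.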

[1] = dose: 50.0 mg/kg/injection, schedule: Q01DX009 (ip), vehicle: saline with Tween-80
[2] = dose: 100.0 mg/kg/injection, schedule: Q01DX009 (ip), vehicle: saline with Tween-80
[3] = dose: 200.0 mg/kg/injection, schedule: Q01DX009 (ip), vehicle: saline with Tween-80

For `NC(=O)c1[nH]ccc1NCc1ccccc1`, the T/C (dose: 50.0 mg/kg/injection, schedule: Q01DX005 (ip), vehicle: saline with Tween-80) was 97 % of control, the T/C (dose: 100.0 mg/kg/injection, schedule: Q01DX005 (ip), vehicle: saline with Tween-80) was 88 % of control and the T/C (dose: 200.0 mg/kg/injection, schedule: Q01DX005 (ip), vehicle: saline with Tween-80) was 97 % of control.
In the case of `C=C1C(=O)O[C@@H]2[C@@H]3O[C@@](C)(CC[C@H](OC(C)=O)[C@@H]3CO)C[C@@H](OC(=O)/C(=C\C)COC(C)=O)[C@@H]12`, the T/C (dose: 25.0 mg/kg/injection, schedule: Q01DX005 (ip), vehicle: Klucel (hydroxypropylcellulose) (HPC)) is reported as 101 % of control.
In the case of `[CH2-]N(CC)CC.[CH2-]N(CC)CC.[Rh].[Rh].[Rh].[c-]1[c-][c-][cH-][c-]1.[c-]1[c-][c-][cH-][c-]1.[c-]1[c-][c-][cH-][c-]1`, the T/C (dose: 6.25 mg/kg/injection, schedule: Q04DX002 (ip), vehicle: saline) is reported as 108 % of control and 96 % of control, the T/C (dose: 12.5 mg/kg/injection, schedule: Q04DX002 (ip), vehicle: saline) is reported as 113 % of control and 115 % of control and 91 % of control and the T/C (dose: 25.0 mg/kg/injection, schedule: Q04DX002 (ip), vehicle: saline) is reported as 99 % of control and 103 % of control and 113 % of control. For the same compound, the T/C (dose: 50.0 mg/kg/injection, schedule: Q04DX002 (ip), vehicle: saline) was 104 % of control and 91 % of control.
In the case of `O=C(N/N=C/c1cc(Br)cc(Br)c1O)c1ccccc1`, the T/C (dose: 100.0 mg/kg/injection, schedule: Q01DX001 (ip), vehicle: saline with Tween-80) is reported as 96 % of control, the T/C (dose: 200.0 mg/kg/injection, schedule: Q01DX001 (ip), vehicle: saline with Tween-80) is reported as 96 % of control and the T/C (dose: 400.0 mg/kg/injection, schedule: Q01DX001 (ip), vehicle: saline with Tween-80) is reported as 92 % of control.
With `N=C(N)c1ccc(N=C(N)Nc2ccc(C(=N)N)cc2)cc1` the T/C (dose: 6.25 mg/kg/injection, schedule: Q01DX009 (ip), vehicle: saline) was 95 % of control, the T/C (dose: 12.5 mg/kg/injection, schedule: Q01DX009 (ip), vehicle: saline) was 95 % of control and the T/C (dose: 25.0 mg/kg/injection, schedule: Q01DX009 (ip), vehicle: saline) was 95 % of control.
For `C=CCSc1ncnc2c1ncn2C1OC(CO)C(O)C1O` (centres undefined), the T/C (dose: 100.0 mg/kg/injection, schedule: Q04DX003 (ip), vehicle: saline sonified) was 105 % of control, the T/C (dose: 200.0 mg/kg/injection, schedule: Q04DX003 (ip), vehicle: saline sonified) was 115 % of control and the T/C (dose: 400.0 mg/kg/injection, schedule: Q04DX003 (ip), vehicle: saline sonified) was 120 % of control.
In the case of `CCCCCCCCCCCC#CC(=O)O`, the T/C [1] is reported as 110 % of control, the T/C [2] is reported as 102 % of control and the T/C [3] is reported as 105 % of control.
In the case of `CN1c2ccccc2SC12C(=O)N(c1ccccc1)C(=O)N2c1ccccc1` (centres undefined), the T/C [1] is reported as 103 % of control, the T/C [2] is reported as 100 % of control and the T/C [3] is reported as 103 % of control.
With `COC(=O)C(N)CCCCNc1ccc2c(cc1=O)C(NC(C)=O)CCc1cc(OC)c(OC)c(OC)c1-2` (centres undefined) the T/C (dose: 25.0 mg/kg/injection, schedule: Q01DX009 (ip), vehicle: saline with Tween-80) was 119 % of control, the T/C (dose: 53.0 mg/kg/injection, schedule: Q01DX009 (ip), vehicle: saline) was 117 % of control and the T/C (dose: 80.0 mg/kg/injection, schedule: Q01DX009 (ip), vehicle: saline) was 117 % of control. For the same compound, the T/C (dose: 270.0 mg/kg/injection, schedule: Q01DX009 (ip), vehicle: saline) was 150 % of control.
In the case of `COc1cc2c(c(OC)c1OC)-c1ccc(OC)c(=O)cc1[C@@H](NC=O)CC2`, the T/C (dose: 0.25 mg/kg/injection, schedule: Q01DX009 (ip), vehicle: saline) is reported as 117 % of control.
With `C=CCC(CC)C(=O)Cl` (centres undefined) the T/C (dose: 75.0 mg/kg/injection, schedule: Q01DX009 (ip), vehicle: saline with Tween-80) was 93 % of control, the T/C (dose: 150.0 mg/kg/injection, schedule: Q01DX009 (ip), vehicle: saline with Tween-80) was 92 % of control and the T/C (dose: 300.0 mg/kg/injection, schedule: Q01DX009 (ip), vehicle: saline with Tween-80) was 111 % of control.
With `CC1CC(C(=O)O)N1` (centres undefined) the T/C (dose: 50.0 mg/kg/injection, schedule: Q01DX005 (ip), vehicle: saline) was 101 % of control, the T/C (dose: 100.0 mg/kg/injection, schedule: Q01DX005 (ip), vehicle: saline) was 98 % of control and the T/C (dose: 200.0 mg/kg/injection, schedule: Q01DX005 (ip), vehicle: saline) was 97 % of control.
For `CC1(C)CCCC2(C)C1CCC1(C)OC(/C(=C\CO)CO)CC12` (centres undefined), the T/C (dose: 50.0 mg/kg/injection, schedule: Q01DX009 (ip), vehicle: Klucel (hydroxypropylcellulose) (HPC)) was 96 % of control and the T/C (dose: 100.0 mg/kg/injection, schedule: Q01DX009 (ip), vehicle: Klucel (hydroxypropylcellulose) (HPC)) was 86 % of control.
With `COc1nc(NC2OCC(OC(C)=O)C(OC(C)=O)C2OC(C)=O)c(N=CC=Nc2c(NC3OCC(OC(C)=O)C(OC(C)=O)C3OC(C)=O)nc(OC)n(C)c2=O)c(=O)n1C` (centres undefined) the T/C (dose: 60.0 mg/kg/injection, schedule: Q01DX005 (ip), vehicle: saline with Tween-80) was 92 % of control, the T/C (dose: 120.0 mg/kg/injection, schedule: Q01DX005 (ip), vehicle: saline with Tween-80) was 91 % of control and the T/C (dose: 240.0 mg/kg/injection, schedule: Q01DX005 (ip), vehicle: saline with Tween-80) was 91 % of control.
